Measured values taken from patent US12521375B2, “Pharmaceutical composition for treating fatty liver disease” (Shionogi & Co., Ltd., priority 2020, dated 2026).

Key:
[1] = tested on: mice fed an ultra-high fat, choline-deficient, methionine-lowered diet; assay: Effect on liver fibrosis progression in mice fed ultra-high fat, choline-deficient, methionine-lowered diet; type: in vivo, C57BL/6JJcl mice; design: 3-hydroxybutyric acid in plasma: unit not given here; conditions: for Amount of triglyceride in liver / Sirius red-positive area rate / 3-hydroxybutyric acid in plasma / Plasma triglyceride concentration: bid; for Amount of triglyceride in liver / Sirius red-positive area rate: oral, 8 weeks; for gene expression level in the liver, Fasn / gene expression level in the liver, Srebf1: vehicle = 1.00
Description: Six-week-old male C57BL/6JJcl mice were fed an ultra-high fat, choline-deficient, methionine-lowered diet (60 kcal % fat content, using lard, choline-deficient, methionine-lowered (0.1%)), and at the same time, the compound of the present invention was suspended in a vehicle (0.5% methylcellulose aqueous solution) so as to have a dose of 3 to 45 mg/kg/10 mL, and orally repeatedly administered (b.i.d.) for 8 weeks. Blood was collected from the tail vein during the repeated administration period, and biochemical parameters in plasma were measured. After 8 weeks of administration, blood was collected from the abdominal vena cava under anesthesia, and then the liver was collected. Paraffin-embedded sections prepared from the collected liver were subjected to Sirius red staining. A degree of fibrosis progression in the liver was determined from a Sirius red-positive area rate and evaluated.

[2] = Metabolic stability test (human); type: in vitro ADME; conditions: human liver microsomes, 37° C., 30 minutes, NADPH
Description: Commercially available pooled human liver microsomes were reacted with the compound of the present invention for a given time. A residual rate was calculated by comparison between the reacted sample and the unreacted sample to evaluate a degree at which the compound of the present invention is metabolized in the liver.
The compound was reacted at 37° C. for 0 minutes or 30 minutes in the presence of 1 mmol/L NADPH in 0.2 mL of a buffer (50 mmol/L Tris-HCl pH 7.4, 150 mmol/L potassium chloride, and 10 mmol/L magnesium chloride) containing 0.5 mg protein/mL of the human liver microsomes (oxidative reaction). After the reaction, 50 μL of the reaction solution was added to 100 μL of a solution of methanol/acetonitrile=1/1 (v/v) and mixed, and the mixture was centrifuged at 3000 rpm for 15 minutes. The compound of the present invention in the centrifuged supernatant was quantified by LC/MS/MS or solid-phase extraction (SPE)/MS. The amount of the compound of the present invention remained after the reaction was calculated with the amount of the compound at 0 minutes of the reaction defined as 100%.

recombinant human ACC2 = recombinant human ACC2 (Homo sapiens (Human), UniProt O00763); assay: Measurement of inhibitory activity of human ACC2; type: biochemical; conditions: read-out: IC50 hACC2
Description: A cDNA encoding human ACC2 protein (27 amino acid residues to 2458 amino acid residues from the N-terminus) was cloned from a human kidney cDNA library (Clontech Laboratories, Inc.), a His-tag sequence was introduced at the 5′ end, and then inserted into pFastBac1 (Invitrogen). A recombinant baculovirus was produced in accordance with the protocol for a Bac-to-Bac baculovirus expression system (Invitrogen), and Sf-9 cells were infected therewith to express human ACC2 protein. The recovered cells were crushed, filtered through a filter, and then subjected to Ni affinity chromatography and anion exchange chromatography. Fractions containing human ACC2 protein were collected to obtain recombinant human ACC2.
The recombinant human ACC1 and the recombinant human ACC2 obtained from the above Preparation Examples were preincubated in an assay buffer (50 mM HEPES-KOH (pH 7.4), 10 mM magnesium chloride, 6 to 10 mM potassium citrate, 4 mM reduced glutathione, and 1.5 mg/ml bovine serum albumin) for 1 hour. […] After incubation, the enzymatic reaction was stopped by addition of EDTA, and then the compound was co-crystallized with an α-cyano-4-hydroxy cinnamic acid (CHCA) matrix on a MALDI target plate, and measurement was performed in a reflector negative mode using a matrix-assisted laser desorption ionization-time-of-flight mass spectrometer (MALDI-TOF MS). Deprotonated ions of the substrate acetyl-CoA (AcCoA) and the reaction product malonyl-CoA (MalCoA) were detected, and the intensity of each signal was used to calculate a conversion rate to malonyl-CoA […], i.e., intensity of [MalCoA-H]-/(intensity of [MalCoA-H]-+intensity of [AcCoA-H]-). […] The potassium citrate concentration in the assay buffer, the potassium bicarbonate concentration in the substrate solution, and the incubation time were adjusted within the above concentrations or reaction times for each lot of the enzyme to be used.

Tissue distribution test = type: in vivo, Crl:CD (SD) rats; conditions: rats, intravenous 0.5 mg/kg, 30 minutes after administration
Description: To 8-week-old male Crl:CD (SD) rats, the compound of the present invention was intravenously administered at a dose of 0.5 mg/mL/kg under non-fasted conditions, and 30 minutes after administration, the rats were killed by exsanguination through whole blood collection from the abdominal aorta under anesthesia. Then, the liver and muscles were removed, and a 25% homogenate was prepared with distilled water. The obtained blood was centrifuged, and plasma was then obtained. Then, control plasma and control tissue homogenate were added to the tissue homogenate sample and the plasma sample, respectively, at 1:1, and each sample was measured using LC/MS/MS. The measured area ratio (tissue/plasma) obtained was used as a tissue Kp value. For compound I-12, the value was 6.10 in the liver and 1.29 in muscles, and for compound I-13, the value was 4.06 in the liver and 0.918 in muscles. Therefore, the compound of the present invention has a property of being distributed in the liver and muscles in vivo.

Crl:CD (SD) rats = assay: Influence on platelet count; type: in vivo; conditions: for Platelet count: oral, 4 days, SD rats; for platelet count in SD rats (in words): within a dose range used for evaluation (50 to 600 mg/kg/day)
Description: The compound of the present invention was suspended in a 0.5% methylcellulose solution so as to have a dose of 50 to 600 mg/kg/day, and was orally repeatedly administered for 4 days to 6-week-old male Crl:CD (SD) rats under non-fasted conditions. On day 5 from the start of administration, blood was collected from the abdominal vena cava under anesthesia, and […]. A platelet count in plasma was evaluated with an automatic hemocytometer.

Chain of recombinant human ACC2 (O00763 27-2458): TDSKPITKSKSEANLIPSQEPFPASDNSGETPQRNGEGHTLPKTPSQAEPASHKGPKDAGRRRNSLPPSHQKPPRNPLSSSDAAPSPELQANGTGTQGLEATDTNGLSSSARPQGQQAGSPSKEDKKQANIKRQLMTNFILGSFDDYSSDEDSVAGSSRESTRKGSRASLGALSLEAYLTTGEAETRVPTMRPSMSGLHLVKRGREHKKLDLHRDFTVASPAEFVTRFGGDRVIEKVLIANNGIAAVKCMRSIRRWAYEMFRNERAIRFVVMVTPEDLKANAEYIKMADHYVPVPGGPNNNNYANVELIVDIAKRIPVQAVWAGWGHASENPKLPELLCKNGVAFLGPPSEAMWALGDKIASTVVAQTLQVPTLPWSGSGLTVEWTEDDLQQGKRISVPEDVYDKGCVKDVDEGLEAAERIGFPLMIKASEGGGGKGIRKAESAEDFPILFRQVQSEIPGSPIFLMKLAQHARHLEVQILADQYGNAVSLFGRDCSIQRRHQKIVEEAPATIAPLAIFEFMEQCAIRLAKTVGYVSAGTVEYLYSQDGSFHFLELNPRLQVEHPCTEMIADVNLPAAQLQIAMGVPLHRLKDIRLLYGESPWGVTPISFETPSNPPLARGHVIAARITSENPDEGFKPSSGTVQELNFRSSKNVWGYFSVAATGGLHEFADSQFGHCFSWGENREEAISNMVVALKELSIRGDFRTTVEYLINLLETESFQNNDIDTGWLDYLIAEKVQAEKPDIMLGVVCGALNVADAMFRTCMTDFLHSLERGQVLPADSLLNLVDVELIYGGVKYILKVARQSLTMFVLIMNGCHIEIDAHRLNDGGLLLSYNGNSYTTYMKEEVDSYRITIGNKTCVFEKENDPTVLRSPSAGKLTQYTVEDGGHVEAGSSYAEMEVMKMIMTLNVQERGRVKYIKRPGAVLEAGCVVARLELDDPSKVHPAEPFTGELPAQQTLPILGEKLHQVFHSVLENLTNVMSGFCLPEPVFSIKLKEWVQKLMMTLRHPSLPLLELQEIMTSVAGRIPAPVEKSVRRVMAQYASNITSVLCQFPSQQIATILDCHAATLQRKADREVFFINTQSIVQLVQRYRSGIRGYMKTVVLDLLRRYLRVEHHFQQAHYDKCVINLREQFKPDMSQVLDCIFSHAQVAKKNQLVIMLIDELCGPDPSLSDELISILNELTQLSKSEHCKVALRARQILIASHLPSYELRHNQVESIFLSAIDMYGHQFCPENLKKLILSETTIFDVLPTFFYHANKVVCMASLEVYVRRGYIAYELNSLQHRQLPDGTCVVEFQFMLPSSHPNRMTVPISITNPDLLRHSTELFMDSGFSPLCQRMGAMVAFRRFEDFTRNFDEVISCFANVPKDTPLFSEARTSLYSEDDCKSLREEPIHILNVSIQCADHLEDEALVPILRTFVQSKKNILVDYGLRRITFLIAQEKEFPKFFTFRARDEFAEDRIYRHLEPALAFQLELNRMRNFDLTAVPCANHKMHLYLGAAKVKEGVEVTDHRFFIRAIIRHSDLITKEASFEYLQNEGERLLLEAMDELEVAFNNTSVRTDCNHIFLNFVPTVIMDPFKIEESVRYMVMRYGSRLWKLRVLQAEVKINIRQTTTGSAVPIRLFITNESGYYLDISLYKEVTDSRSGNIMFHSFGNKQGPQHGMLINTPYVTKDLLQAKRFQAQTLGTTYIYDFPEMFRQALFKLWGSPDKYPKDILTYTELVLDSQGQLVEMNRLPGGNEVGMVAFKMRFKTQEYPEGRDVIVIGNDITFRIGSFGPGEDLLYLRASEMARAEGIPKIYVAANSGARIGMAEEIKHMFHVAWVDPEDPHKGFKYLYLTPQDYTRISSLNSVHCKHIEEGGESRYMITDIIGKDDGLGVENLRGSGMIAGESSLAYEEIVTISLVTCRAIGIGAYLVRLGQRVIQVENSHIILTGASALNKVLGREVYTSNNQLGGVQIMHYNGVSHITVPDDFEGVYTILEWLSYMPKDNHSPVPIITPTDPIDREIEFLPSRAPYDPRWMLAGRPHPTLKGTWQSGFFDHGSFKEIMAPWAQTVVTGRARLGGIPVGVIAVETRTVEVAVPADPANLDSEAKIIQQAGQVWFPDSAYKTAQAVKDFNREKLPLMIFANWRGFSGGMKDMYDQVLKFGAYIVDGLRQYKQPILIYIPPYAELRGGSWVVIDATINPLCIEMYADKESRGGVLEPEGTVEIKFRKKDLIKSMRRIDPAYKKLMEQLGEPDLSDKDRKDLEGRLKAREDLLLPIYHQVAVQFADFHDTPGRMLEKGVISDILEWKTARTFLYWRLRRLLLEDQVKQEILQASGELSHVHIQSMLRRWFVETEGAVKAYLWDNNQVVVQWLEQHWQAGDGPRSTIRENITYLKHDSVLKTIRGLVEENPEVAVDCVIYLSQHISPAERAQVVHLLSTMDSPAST

For `C[C@@H](CO[C@H]1CC[C@H](Oc2nc3c(F)cc(OC4CC4)cc3n2C)CC1)NC(N)=O` [Compound I-12], which “Amount of triglyceride in liver” value ([1]; 3 mg/kg) is on record?
The value was 157 ± 7.3 mg/g tissue.

What about the “Sirius red-positive area rate” value ([1]; 3 mg/kg) of the same compound?
Its value is 3.47 ± 0.41%.

And the “3-hydroxybutyric acid in plasma” value ([1]; 3 mg/kg, Week 2)?
Its value is 128 ± 23.

And the Plasma triglyceride concentration ([1]; 3 mg/kg, Week 2)?
Its Plasma triglyceride concentration is 32.9 ± 1.3 mg/dL.

What about the “3-hydroxybutyric acid in plasma” value ([1]; 3 mg/kg, Week 4) of the same compound?
Its value is 155 ± 31.

What about the Plasma triglyceride concentration ([1]; 3 mg/kg, Week 4) of the same compound?
The Plasma triglyceride concentration was 22.4 ± 2.1 mg/dL.

What about the “3-hydroxybutyric acid in plasma” value ([1]; 3 mg/kg, Week 7) of the same compound?
Its value is 108 ± 31.

And the Plasma triglyceride concentration ([1]; 3 mg/kg, Week 7)?
Its Plasma triglyceride concentration is 27.2 ± 1.5 mg/dL.

And the “Amount of triglyceride in liver” value ([1]; 10 mg/kg)?
Its value is 137 ± 7.2 mg/g tissue.

And the “Sirius red-positive area rate” value ([1]; 10 mg/kg)?
The value was 4.46 ± 0.69%.

What about the “3-hydroxybutyric acid in plasma” value ([1]; 10 mg/kg, Week 2) of the same compound?
The value was 136 ± 23.

What about the Plasma triglyceride concentration ([1]; 10 mg/kg, Week 2) of the same compound?
Its Plasma triglyceride concentration is 30.4 ± 2.2 mg/dL.

What about the “3-hydroxybutyric acid in plasma” value ([1]; 10 mg/kg, Week 4) of the same compound?
The value was 292 ± 27.

And the Plasma triglyceride concentration ([1]; 10 mg/kg, Week 4)?
Its Plasma triglyceride concentration is 21.5 ± 1.8 mg/dL.

What about the “3-hydroxybutyric acid in plasma” value ([1]; 10 mg/kg, Week 7) of the same compound?
The value was 119 ± 34.

What about the Plasma triglyceride concentration ([1]; 10 mg/kg, Week 7) of the same compound?
The Plasma triglyceride concentration was 22.1 ± 1.9 mg/dL.

What about the “Amount of triglyceride in liver” value ([1]; 30 mg/kg) of the same compound?
The value was 144 ± 7.5 mg/g tissue.

What about the “Sirius red-positive area rate” value ([1]; 30 mg/kg) of the same compound?
Its value is 2.29 ± 0.32 %.

What about the “3-hydroxybutyric acid in plasma” value ([1]; 30 mg/kg, Week 2) of the same compound?
Its value is 189 ± 33.

What about the Plasma triglyceride concentration ([1]; 30 mg/kg, Week 2) of the same compound?
The Plasma triglyceride concentration was 23.1 ± 2.5 mg/dL.

And the “3-hydroxybutyric acid in plasma” value ([1]; 30 mg/kg, Week 4)?
The value was 292 ± 82.

What about the Plasma triglyceride concentration ([1]; 30 mg/kg, Week 4) of the same compound?
The Plasma triglyceride concentration was 11.1 ± 1.1 mg/dL.

What about the “3-hydroxybutyric acid in plasma” value ([1]; 30 mg/kg, Week 7) of the same compound?
Its value is 187 ± 28.

And the Plasma triglyceride concentration ([1]; 30 mg/kg, Week 7)?
The Plasma triglyceride concentration was 16.2 ± 1.6 mg/dL.

And the “Sirius red-positive area rate vs vehicle administration group (in words)” value ([1]; dose of 30 mg/kg)?
The value was “significantly lower than that of the vehicle administration group”.

And the “amount of triglyceride in the liver vs vehicle administration group (in words)” value ([1]; dose of 10 or 30 mg/kg)?
Its value is “significantly lower than that of the vehicle administration group”.

What about the “concentration of 3-hydroxybutyric acid in plasma vs vehicle administration group (in words)” value ([1]; mouse, in vivo) of the same compound?
The value was “higher than that in the vehicle administration group”.

What about the “plasma triglyceride concentration vs vehicle administration group (in words)” value ([1]; mouse, in vivo) of the same compound?
The value was “lower than that in the vehicle administration group”.

And the “Amount of compound remained, Human” value [2]?
The value was 83.3%.

And the IC50 (recombinant human ACC2)?
Its IC50 is 5.6 nM.

And the “tissue Kp value (tissue/plasma), liver” value (Tissue distribution test)?
Its value is 6.10.

What about the “tissue Kp value (tissue/plasma), muscles” value (Tissue distribution test) of the same compound?
The value was 1.29.

And the Platelet count (Crl:CD (SD) rats; 100 mg/kg/day)?
Its Platelet count is 987 ± 86.

What about the Platelet count (Crl:CD (SD) rats; 300 mg/kg/day) of the same compound?
Its Platelet count is 988 ± 43.

What about the Platelet count (Crl:CD (SD) rats; 600 mg/kg/day) of the same compound?
Its Platelet count is 1061 ± 85.

And the “platelet count in SD rats (in words)” value (Crl:CD (SD) rats)?
The value was “did not affect the platelet count”.

What does the source list for `CC(=O)N[C@@H](C)CC[C@H]1OC[C@H](Oc2nc3c(F)cc(OC4CC4)cc3n2C)CO1` [Compound I-13]?
Amount of triglyceride in liver ([1]; 15 mg/kg): 179 ± 6.8 mg/g tissue; Sirius red-positive area rate ([1]; 15 mg/kg): 1.33 ± 0.20%; 3-hydroxybutyric acid in plasma ([1]; 15 mg/kg, Week 0): 298 ± 27; Plasma triglyceride concentration ([1]; 15 mg/kg, Week 0): 61.6 ± 3.1 mg/dL; 3-hydroxybutyric acid in plasma ([1]; 15 mg/kg, Week 1): 396 ± 30; Plasma triglyceride concentration ([1]; 15 mg/kg, Week 1): 23.7 ± 1.0 mg/dL; 3-hydroxybutyric acid in plasma ([1]; 15 mg/kg, Week 3): 797 ± 48; Plasma triglyceride concentration ([1]; 15 mg/kg, Week 3): 19.8 ± 1.2 mg/dL; 3-hydroxybutyric acid in plasma ([1]; 15 mg/kg, Week 5): 616 ± 37; Plasma triglyceride concentration ([1]; 15 mg/kg, Week 5): 19.0 ± 1.7 mg/dL; 3-hydroxybutyric acid in plasma ([1]; 15 mg/kg, Week 7): 501 ± 28; Plasma triglyceride concentration ([1]; 15 mg/kg, Week 7): 18.8 ± 1.2 mg/dL; gene expression level in the liver, Fasn ([1]; 15 mg/kg): 0.82 ± 0.20; gene expression level in the liver, Srebf1 ([1]; 15 mg/kg): 0.70 ± 0.19; Amount of triglyceride in liver ([1]; 45 mg/kg): 155 ± 7.1 mg/g tissue; Sirius red-positive area rate ([1]; 45 mg/kg): 1.06 ± 0.10 %; 3-hydroxybutyric acid in plasma ([1]; 45 mg/kg, Week 0): 369 ± 28; Plasma triglyceride concentration ([1]; 45 mg/kg, Week 0): 63.6 ± 3.7 mg/dL; 3-hydroxybutyric acid in plasma ([1]; 45 mg/kg, Week 1): 378 ± 28; Plasma triglyceride concentration ([1]; 45 mg/kg, Week 1): 22.4 ± 2.5 mg/dL; 3-hydroxybutyric acid in plasma ([1]; 45 mg/kg, Week 3): 688 ± 72; Plasma triglyceride concentration ([1]; 45 mg/kg, Week 3): 18.9 ± 1.4 mg/dL; 3-hydroxybutyric acid in plasma ([1]; 45 mg/kg, Week 5): 564 ± 77; Plasma triglyceride concentration ([1]; 45 mg/kg, Week 5): 16.5 ± 1.7 mg/dL; 3-hydroxybutyric acid in plasma ([1]; 45 mg/kg, Week 7): 462 ± 45; Plasma triglyceride concentration ([1]; 45 mg/kg, Week 7): 15.1 ± 1.0 mg/dL; gene expression level in the liver, Fasn ([1]; 45 mg/kg): 0.59 ± 0.09; gene expression level in the liver, Srebf1 ([1]; 45 mg/kg): 0.34 ± 0.05; Sirius red-positive area rate vs vehicle administration group (in words) ([1]; dose of 45 mg/kg): significantly lower than that of the vehicle administration group; amount of triglyceride in the liver vs vehicle administration group (in words) ([1]; dose of 45 mg/kg): significantly lower than that of the vehicle administration group; Srebf1 and Fas in the liver (in words) ([1]; mouse, in vivo): no increase in Srebf1 and Fas in the liver was observed; concentration of 3-hydroxybutyric acid in plasma vs vehicle administration group (in words) ([1]; mouse, in vivo): higher than that in the vehicle administration group; plasma triglyceride concentration vs vehicle administration group (in words) ([1]; mouse, in vivo): lower than that in the vehicle administration group; Amount of compound remained, Human [2]: 95.4%; IC50 (recombinant human ACC2): 6.6 nM; tissue Kp value (tissue/plasma), liver (Tissue distribution test): 4.06; tissue Kp value (tissue/plasma), muscles (Tissue distribution test): 0.918; Platelet count (Crl:CD (SD) rats; 50 mg/kg/day): 1079 ± 73; Platelet count (Crl:CD (SD) rats; 100 mg/kg/day): 1048 ± 65; Platelet count (Crl:CD (SD) rats; 200 mg/kg/day): 1122 ± 87; platelet count in SD rats (in words) (Crl:CD (SD) rats): did not affect the platelet count
